ChEMBL document CHEMBL3045691, “Evaluation of rat kidney aldose reductase inhibitory activity of some N-acetyl dehydroalanine derivatives” (Med Chem Res, 2011)

Molecular target: Aldo-keto reductase family 1 member B1 (Rattus norvegicus) (UniProt P07943)
Assay: Inhibition of Rattus norvegicus albino (rat) kidney aldose reductase using D-L-glyceraldehyde as substrate assessed as decrease in NADPH concentration at 3.3 x 10^-6 M after 5 min by spectrophotometric analysis

| inhibition [%] | SMILES |
| --- | --- |
| 19.6 | C=C(NC(C)=O)C(=O)NCCCCl |
| 2.3 | C=C(NC(C)=O)C(=O)NCc1ccc(Cl)cc1 |
| 3.77 | C=C(NC(C)=O)C(=O)NC(C)C |
| 0 | C=C(NC(C)=O)C(=O)NCc1ccccc1OC |
| 0 | C=C(NC(C)=O)C(=O)N1CCCC1 |
| 4.5 | C=C(NC(C)=O)C(=O)Nc1nnc(CC)s1 |
| 7.26 | C=C(NC(C)=O)C(=O)NCc1ccccc1Cl |
| 4.13 | C=C(NC(C)=O)C(=O)NCCC(C)C |
| 3.4 | C=C(NC(C)=O)C(=O)N1CCCCC1 |
| 13.1 | C=C(NC(C)=O)C(=O)NCC |
| 9.46 | C=C(NC(C)=O)C(=O)NC |
| 3.22 | C=C(NC(C)=O)C(=O)NC(C)(C)CC |
| 2.48 | C=C(NC(C)=O)C(=O)NCc1ccccc1 |
| 4.32 | C=C(NC(C)=O)C(=O)NCCC |
| 0 | C=C(NC(C)=O)C(=O)NC(C)CC (stereo not given) |
